Structures can show the parent of a compound that is named as a salt. Where two headings read alike, the source gives them in different places.
Assays:
Test in all cases: AK assay 384-well format, Prestwick library screening
E. cloacae = type: cell-based, Enterobacter cloacae; details: for fold induction at 50 µM: Enterobacter cloacae, 3 h
[1] = test system: A. baumannii strain 98-37-09; type: cell-based, Acinetobacter baumannii; details: for fold induction at 50 µM: Acinetobacter baumannii, 983709, 3 h
P. aeruginosa = type: cell-based, Pseudomonas aeruginosa; details: for fold induction at 50 µM: Pseudomonas aeruginosa, 3 h
[2] = test system: S. aureus strain USA300-0114; type: cell-based, Staphylococcus aureus; details: for fold induction at 50 µM: Staphylococcus aureus, USA300, 3 h
E. coli = type: cell-based, Escherichia coli; details: 50 μM final drug concentration; for fold induction at 50 µM: Escherichia coli, 3 h
K. pneumoniae = type: cell-based, Klebsiella pneumoniae; details: for fold induction at 50 µM: Klebsiella pneumoniae, 3 h
E. faecium = type: cell-based, Enterococcus faecium; details: for fold induction at 50 µM: Enterococcus faecium, 3 h
[3] = 50 μM final drug concentration, cutoff for positive-scoring molecules 3-fold increase, read-out: AK-based Prestwick Library Screening Results, E. cloacae (fold increase in extracellular AK activity)
[4] = 50 μM final drug concentration, cutoff for positive-scoring molecules 3-fold increase, read-out: AK-based Prestwick Library Screening Results, A. baumannii (fold increase in extracellular AK activity)
[5] = 50 μM final drug concentration, cutoff for positive-scoring molecules 3-fold increase, read-out: AK-based Prestwick Library Screening Results, P. aeruginosa (fold increase in extracellular AK activity)
[6] = 50 μM final drug concentration, cutoff for positive-scoring molecules 3-fold increase, read-out: AK-based Prestwick Library Screening Results, S. aureus (fold increase in extracellular AK activity)
[7] = cutoff for positive-scoring molecules 3-fold increase, read-out: AK-based Prestwick Library Screening Results, E. coli (fold increase in extracellular AK activity)
[8] = 50 μM final drug concentration, cutoff for positive-scoring molecules 3-fold increase, read-out: AK-based Prestwick Library Screening Results, K. pneumoniae (fold increase in extracellular AK activity)
[9] = 50 μM final drug concentration, cutoff for positive-scoring molecules 3-fold increase, read-out: AK-based Prestwick Library Screening Results, E. faecium (fold increase in extracellular AK activity)
[10] = 50 μM final drug concentration, 384-well format, cutoff for positive-scoring molecules 3-fold increase, read-out: AK-based Prestwick Library Screening Results, E. cloacae (increase in extracellular AK activity)
[11] = 50 μM final drug concentration, 384-well format, cutoff for positive-scoring molecules 3-fold increase, read-out: AK-based Prestwick Library Screening Results, A. baumannii (increase in extracellular AK activity)
[12] = 50 μM final drug concentration, 384-well format, cutoff for positive-scoring molecules 3-fold increase, read-out: AK-based Prestwick Library Screening Results, P. aeruginosa (increase in extracellular AK activity)
[13] = 50 μM final drug concentration, 384-well format, cutoff for positive-scoring molecules 3-fold increase, read-out: AK-based Prestwick Library Screening Results, S. aureus (increase in extracellular AK activity)
[14] = 384-well format, cutoff for positive-scoring molecules 3-fold increase, read-out: AK-based Prestwick Library Screening Results, E. coli (increase in extracellular AK activity)
[15] = 50 μM final drug concentration, 384-well format, cutoff for positive-scoring molecules 3-fold increase, read-out: AK-based Prestwick Library Screening Results, K. pneumoniae (increase in extracellular AK activity)
[16] = 50 μM final drug concentration, 384-well format, cutoff for positive-scoring molecules 3-fold increase, read-out: AK-based Prestwick Library Screening Results, E. faecium (increase in extracellular AK activity)
[17] = 50 μM final drug concentration, planktonic, cutoff for positive 3-fold increase

Cc1cc(C(=O)NNCc2ccccc2)no1 [Isocarboxazid]
fold induction at 50 µM (E. cloacae; [3]): 1.5
fold induction at 50 µM [1, 4]: 1.1
fold induction at 50 µM (P. aeruginosa; [5]): 1.1
fold induction at 50 µM [2, 6]: 1.5
fold induction at 50 µM (E. coli; [7]): 1.1
fold induction at 50 µM (K. pneumoniae; [8]): 1.1
fold induction at 50 µM (E. faecium; [9]): 1

Clc1ccc(C(Cn2ccnc2)OCc2c(Cl)cccc2Cl)c(Cl)c1 (stereo not drawn) [Isoconazole]
fold induction at 50 µM (E. cloacae; [10]): 1.7
fold induction at 50 µM [1, 11]: 5.6
fold induction at 50 µM (P. aeruginosa; [12]): 1.3
fold induction at 50 µM [2, 13]: 5.2
fold induction at 50 µM (E. coli; [14]): 1.8
fold induction at 50 µM (K. pneumoniae; [15]): 1.4
fold induction at 50 µM (E. faecium; [16]): 1.8

COc1ccc2c(c1O)-c1c(OC)c(OC)cc3c1[C@H](C2)N(C)CC3 [Isocorydine (+)]
AK-based Prestwick Library Screening Results, E. cloacae (increase in extracellular AK activity) (E. cloacae; planktonic E. cloacae, 50 μM final drug concentration, cutoff for positive-scoring molecules 3-fold increase): 1.3
AK-based Prestwick Library Screening Results, A. baumannii (increase in extracellular AK activity) ([1]; planktonic A. baumannii, 50 μM final drug concentration, cutoff for positive-scoring molecules 3-fold increase): 0.9
AK-based Prestwick Library Screening Results, P. aeruginosa (increase in extracellular AK activity) (P. aeruginosa; planktonic P. aeruginosa, 50 μM final drug concentration, cutoff for positive-scoring molecules 3-fold increase): 0.8
AK-based Prestwick Library Screening Results, S. aureus (increase in extracellular AK activity) ([2]; planktonic S. aureus, 50 μM final drug concentration, cutoff for positive-scoring molecules 3-fold increase): 0.7
AK-based Prestwick Library Screening Results, E. coli (increase in extracellular AK activity) (E. coli; planktonic E. coli, cutoff for positive-scoring molecules 3-fold increase): 0.9
AK-based Prestwick Library Screening Results, K. pneumoniae (increase in extracellular AK activity) (K. pneumoniae; planktonic K. pneumoniae, 50 μM final drug concentration, cutoff for positive-scoring molecules 3-fold increase): 0.7
AK-based Prestwick Library Screening Results, E. faecium (increase in extracellular AK activity) (E. faecium; planktonic E. faecium, 50 μM final drug concentration, cutoff for positive-scoring molecules 3-fold increase): 0.9

CC(=O)OCC(=O)[C@@]1(O)CC[C@H]2[C@@H]3CCC4=CC(=O)C=C[C@]4(C)[C@@]3(F)[C@@H](O)C[C@@]21C [Isoflupredone acetate]
fold induction at 50 µM (E. cloacae; [10]): 0.4
fold induction at 50 µM [1, 11]: 0.4
fold induction at 50 µM (P. aeruginosa; [12]): 0.4
fold induction at 50 µM [2, 13]: 0.4
fold induction at 50 µM (E. coli; [14]): 0.5
fold induction at 50 µM (K. pneumoniae; [15]): 0.5
fold induction at 50 µM (E. faecium; [16]): 0.9

CNC(C)CCC=C(C)C.CNC(C)CCC=C(C)C.O=C(O)[C@@H](O)[C@H](O)[C@H](O)[C@@H](O)C(=O)O [Isometheptene mutate]
AK-based Prestwick library screening result, E. cloacae (fold increase in extracellular AK activity) (E. cloacae): 1.2
AK-based Prestwick library screening result, A. baumannii (fold increase in extracellular AK activity) [1]: 1.5
AK-based Prestwick library screening result, P. aeruginosa (fold increase in extracellular AK activity) (P. aeruginosa): 1.1
AK-based Prestwick library screening result, S. aureus (fold increase in extracellular AK activity) [2]: 1.2
AK-based Prestwick library screening result, E. coli (fold increase in extracellular AK activity) (E. coli; planktonic E. coli, […]): 1.2
AK-based Prestwick library screening result, K. pneumoniae (fold increase in extracellular AK activity) (K. pneumoniae): 1.1
AK-based Prestwick library screening result, E. faecium (fold increase in extracellular AK activity) (E. faecium): 1.0

NNC(=O)c1ccncc1 [Isoniazid]
fold induction at 50 µM (E. cloacae; [10]): 0.6
fold induction at 50 µM [1, 11]: 0.6
fold induction at 50 µM (P. aeruginosa; [12]): 0.6
fold induction at 50 µM [2, 13]: 0.7
fold induction at 50 µM (E. coli; [14]): 0.6
fold induction at 50 µM (K. pneumoniae; [15]): 0.6
fold induction at 50 µM (E. faecium; [16]): 1

CC(C)[N+](C)(CCC(C(N)=O)(c1ccccc1)c1ccccc1)C(C)C [Isopropamide iodide]
fold induction at 50 µM (E. cloacae; [3]): 1.5
fold induction at 50 µM [1, 4]: 1
fold induction at 50 µM (P. aeruginosa; [5]): 1.2
fold induction at 50 µM [2, 6]: 1.2
fold induction at 50 µM (E. coli; [7]): 1.3
fold induction at 50 µM (K. pneumoniae; [8]): 1.1
fold induction at 50 µM (E. faecium; [9]): 1.1

Cc1c(NC(C)C)c(=O)n(-c2ccccc2)n1C.Cl [Isopyrin hydrochloride]
AK-based Prestwick Library Screening Results, E. cloacae (fold increase in extracellular AK activity) (E. cloacae; [17]): 0.3
AK-based Prestwick Library Screening Results, A. baumannii (fold increase in extracellular AK activity) [1, 17]: 0.3
AK-based Prestwick Library Screening Results, P. aeruginosa (fold increase in extracellular AK activity) (P. aeruginosa; [17]): 0.4
AK-based Prestwick Library Screening Results, S. aureus (fold increase in extracellular AK activity) [2, 17]: 0.4
AK-based Prestwick Library Screening Results, E. coli (fold increase in extracellular AK activity) (E. coli; planktonic, cutoff for positive 3-fold increase): 0.4
AK-based Prestwick Library Screening Results, K. pneumoniae (fold increase in extracellular AK activity) (K. pneumoniae; [17]): 0.4
AK-based Prestwick Library Screening Results, E. faecium (fold increase in extracellular AK activity) (E. faecium; [17]): 0.8

CC1=C(/C=C/C(C)=C/C=C/C(C)=C\C(=O)O)C(C)(C)CCC1 [Isotretinoin]
fold induction at 50 µM (E. cloacae; [10]): 0.9
fold induction at 50 µM [1, 11]: 0.7
fold induction at 50 µM (P. aeruginosa; [12]): 0.8
fold induction at 50 µM [2, 13]: 0.6
fold induction at 50 µM (E. coli; [14]): 0.7
fold induction at 50 µM (K. pneumoniae; [15]): 0.6
fold induction at 50 µM (E. faecium; [16]): 1

Cc1cc(NC(=O)C2=C(O)c3ccccc3S(=O)(=O)N2C)no1 [Isoxicam]
fold induction at 50 µM (E. cloacae; [10]): 1.4
fold induction at 50 µM [1, 11]: 1
fold induction at 50 µM (P. aeruginosa; [12]): 1
fold induction at 50 µM [2, 13]: 1
fold induction at 50 µM (E. coli; [14]): 1.2
fold induction at 50 µM (K. pneumoniae; [15]): 1
fold induction at 50 µM (E. faecium; [16]): 1

CC(COc1ccccc1)NC(C)C(O)c1ccc(O)cc1 (stereo not drawn) [Isoxsuprine hydrochloride]
fold induction at 50 µM (E. cloacae; planktonic E. cloacae, 50 μM final drug concentration, 384-well, cutoff for positive-scoring molecules 3-fold increase, read-out: AK-based Prestwick Library Screening Results: E. cloacae (increase in extracellular AK activity)): 1.5
fold induction at 50 µM ([1]; planktonic A. baumannii, 50 μM final drug concentration, 384-well, cutoff for positive-scoring molecules 3-fold increase, read-out: AK-based Prestwick Library Screening Results: A. baumannii (increase in extracellular AK activity)): 1.5
fold induction at 50 µM (P. aeruginosa; planktonic P. aeruginosa, 50 μM final drug concentration, 384-well, cutoff for positive-scoring molecules 3-fold increase, read-out: AK-based Prestwick Library Screening Results: P. aeruginosa (increase in extracellular AK activity)): 1.1
fold induction at 50 µM ([2]; planktonic S. aureus, 50 μM final drug concentration, 384-well, cutoff for positive-scoring molecules 3-fold increase, read-out: AK-based Prestwick Library Screening Results: S. aureus (increase in extracellular AK activity)): 1.1
fold induction at 50 µM (E. coli; planktonic E. coli, 384-well, cutoff for positive-scoring molecules 3-fold increase, read-out: AK-based Prestwick Library Screening Results: E. coli (increase in extracellular AK activity)): 1.1
fold induction at 50 µM (K. pneumoniae; planktonic K. pneumoniae, 50 μM final drug concentration, 384-well, cutoff for positive-scoring molecules 3-fold increase, read-out: AK-based Prestwick Library Screening Results: K. pneumoniae (increase in extracellular AK activity)): 1
fold induction at 50 µM (E. faecium; planktonic E. faecium, 50 μM final drug concentration, 384-well, cutoff for positive-scoring molecules 3-fold increase, read-out: AK-based Prestwick Library Screening Results: E. faecium (increase in extracellular AK activity)): 1

COC(=O)C1=C(C)NC(C)=C(C(=O)OC(C)C)C1c1cccc2nonc12 (stereo not drawn) [Isradipine]
fold induction at 50 µM (E. cloacae; planktonic E. cloacae, 50 μM final drug concentration, positive cutoff 3-fold increase, read-out: AK-based Prestwick library screening result, E. cloacae (fold increase in extracellular AK activity)): 1.4
fold induction at 50 µM ([1]; planktonic A. baumannii, 50 μM final drug concentration, positive cutoff 3-fold increase, read-out: AK-based Prestwick library screening result, A. baumannii (fold increase in extracellular AK activity)): 1.2
fold induction at 50 µM (P. aeruginosa; planktonic P. aeruginosa, 50 μM final drug concentration, positive cutoff 3-fold increase, read-out: AK-based Prestwick library screening result, P. aeruginosa (fold increase in extracellular AK activity)): 1.1
fold induction at 50 µM ([2]; planktonic S. aureus, 50 μM final drug concentration, positive cutoff 3-fold increase, read-out: AK-based Prestwick library screening result, S. aureus (fold increase in extracellular AK activity)): 0.7
fold induction at 50 µM (E. coli; planktonic E. coli, positive cutoff 3-fold increase, read-out: AK-based Prestwick library screening result, E. coli (fold increase in extracellular AK activity)): 1.1
fold induction at 50 µM (K. pneumoniae; planktonic K. pneumoniae, 50 μM final drug concentration, positive cutoff 3-fold increase, read-out: AK-based Prestwick library screening result, K. pneumoniae (fold increase in extracellular AK activity)): 1.1
fold induction at 50 µM (E. faecium; planktonic E. faecium, 50 μM final drug concentration, positive cutoff 3-fold increase, read-out: AK-based Prestwick library screening result, E. faecium (fold increase in extracellular AK activity)): 1.1
